Data from patent publication US8192962B2, “Processes for detecting toxic substances” (Daikin Industries, Ltd., priority 2001, dated 2012).

Tested on: Unknown protein yeast genes
Assay: DNA chip mRNA expression in yeast, unknown protein yeast genes (Table 1)
Assay type: cell-based, Saccharomyces cerevisiae S288C
How it was run: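 Ratios compare mRNA levels in stressed and control S. cerevisiae. Each toxicant was applied for two hours to log-phase cultures at 25° C. at a sub-lethal, growth-inhibiting level; fluorescent cDNA (Cy3- or Cy5-dUTP) was hybridized to a genome-wide yeast chip for over 12 h at 65° C.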

SMILES: CCCCC[C@H](O)CC(=O)CCc1ccc(O)c(OC)c1 [(13), gingerol]
- The level of expressed mRNA in the presence of chemical substance/The level of expressed mRNA in the absence of chemical substance (yeast gene YAL018C): 1.3
- The level of expressed mRNA in the presence of chemical substance/The level of expressed mRNA in the absence of chemical substance (yeast gene YAL049C, incubated two hours with substance): 1.6
- The level of expressed mRNA in the presence of chemical substance/The level of expressed mRNA in the absence of chemical substance (yeast gene YAR031W): 3.3
- The level of expressed mRNA in the presence of chemical substance/The level of expressed mRNA in the absence of chemical substance (yeast gene YAR047C): 1.4
- The level of expressed mRNA in the presence of chemical substance/The level of expressed mRNA in the absence of chemical substance (yeast gene YAR064W): 1.1
- The level of expressed mRNA in the presence of chemical substance/The level of expressed mRNA in the absence of chemical substance (yeast gene YBL048W): 2.7
- The level of expressed mRNA in the presence of chemical substance/The level of expressed mRNA in the absence of chemical substance (yeast gene YBL049W): 3.9
- The level of expressed mRNA in the presence of chemical substance/The level of expressed mRNA in the absence of chemical substance (yeast gene YBL107C): 2.6
- The level of expressed mRNA in the presence of chemical substance/The level of expressed mRNA in the absence of chemical substance (yeast gene YBR012C): 2.1
- The level of expressed mRNA in the presence of chemical substance/The level of expressed mRNA in the absence of chemical substance (yeast gene YBR062C): 2.8
- The level of expressed mRNA in the presence of chemical substance/The level of expressed mRNA in the absence of chemical substance (yeast gene YBR124W): 0.9
- The level of expressed mRNA in the presence of chemical substance/The level of expressed mRNA in the absence of chemical substance (yeast gene YBR287W): 3.4
- The level of expressed mRNA in the presence of chemical substance/The level of expressed mRNA in the absence of chemical substance (yeast gene YCL056C): 1.3
- The level of expressed mRNA in the presence of chemical substance/The level of expressed mRNA in the absence of chemical substance (yeast gene YCR007C): 1.5
- The level of expressed mRNA in the presence of chemical substance/The level of expressed mRNA in the absence of chemical substance (yeast gene YCR013C): 3.9
- The level of expressed mRNA in the presence of chemical substance/The level of expressed mRNA in the absence of chemical substance (yeast gene YDL027C): 3.2
- The level of expressed mRNA in the presence of chemical substance/The level of expressed mRNA in the absence of chemical substance (yeast gene YDL046W): 1.5
- The level of expressed mRNA in the presence of chemical substance/The level of expressed mRNA in the absence of chemical substance (yeast gene YDL110C): 2.7
- The level of expressed mRNA in the presence of chemical substance/The level of expressed mRNA in the absence of chemical substance (yeast gene YDL169C): 3.7
- The level of expressed mRNA in the presence of chemical substance/The level of expressed mRNA in the absence of chemical substance (yeast gene YDR090C): 0.8
- The level of expressed mRNA in the presence of chemical substance/The level of expressed mRNA in the absence of chemical substance (yeast gene YDR128W): 1.1
- The level of expressed mRNA in the presence of chemical substance/The level of expressed mRNA in the absence of chemical substance (yeast gene YDR133C): 0.1
- The level of expressed mRNA in the presence of chemical substance/The level of expressed mRNA in the absence of chemical substance (yeast gene YDR210W): 2.3
- The level of expressed mRNA in the presence of chemical substance/The level of expressed mRNA in the absence of chemical substance (yeast gene YDR250C): 1.2
- The level of expressed mRNA in the presence of chemical substance/The level of expressed mRNA in the absence of chemical substance (yeast gene YDR366C): 0.8
- The level of expressed mRNA in the presence of chemical substance/The level of expressed mRNA in the absence of chemical substance (yeast gene YDR435C): 2.5
- The level of expressed mRNA in the presence of chemical substance/The level of expressed mRNA in the absence of chemical substance (yeast gene YDR476C): 2.8
- The level of expressed mRNA in the presence of chemical substance/The level of expressed mRNA in the absence of chemical substance (yeast gene YER037W): 3.0
- The level of expressed mRNA in the presence of chemical substance/The level of expressed mRNA in the absence of chemical substance (yeast gene YFL024C): 0.9
- The level of expressed mRNA in the presence of chemical substance/The level of expressed mRNA in the absence of chemical substance (yeast gene YFR003C): 2.5
- The level of expressed mRNA in the presence of chemical substance/The level of expressed mRNA in the absence of chemical substance (yeast gene YFR026C): 1.1
- The level of expressed mRNA in the presence of chemical substance/The level of expressed mRNA in the absence of chemical substance (yeast gene YGR035C): 2.1
- The level of expressed mRNA in the presence of chemical substance/The level of expressed mRNA in the absence of chemical substance (yeast gene YGR038W): 1.2
- The level of expressed mRNA in the presence of chemical substance/The level of expressed mRNA in the absence of chemical substance (yeast gene YGR110W): 3.6
- The level of expressed mRNA in the presence of chemical substance/The level of expressed mRNA in the absence of chemical substance (yeast gene YGR139W): 0.4
- The level of expressed mRNA in the presence of chemical substance/The level of expressed mRNA in the absence of chemical substance (yeast gene YGR237C, incubated two hours with substance): 1.6
- The level of expressed mRNA in the presence of chemical substance/The level of expressed mRNA in the absence of chemical substance (yeast gene YGR277C, incubated two hours with substance): 1.6
- The level of expressed mRNA in the presence of chemical substance/The level of expressed mRNA in the absence of chemical substance (yeast gene YHL006C): 1.1
- The level of expressed mRNA in the presence of chemical substance/The level of expressed mRNA in the absence of chemical substance (yeast gene YHR209W): 2.0
- The level of expressed mRNA in the presence of chemical substance/The level of expressed mRNA in the absence of chemical substance (yeast gene YIL127C): 0.4
- The level of expressed mRNA in the presence of chemical substance/The level of expressed mRNA in the absence of chemical substance (yeast gene YJL017W): 1.5
- The level of expressed mRNA in the presence of chemical substance/The level of expressed mRNA in the absence of chemical substance (yeast gene YJL037W): 1.1
- The level of expressed mRNA in the presence of chemical substance/The level of expressed mRNA in the absence of chemical substance (yeast gene YKL097C): 0.9
- The level of expressed mRNA in the presence of chemical substance/The level of expressed mRNA in the absence of chemical substance (yeast gene YKL107W): 1.9
- The level of expressed mRNA in the presence of chemical substance/The level of expressed mRNA in the absence of chemical substance (yeast gene YKR040C): 0.6
- The level of expressed mRNA in the presence of chemical substance/The level of expressed mRNA in the absence of chemical substance (yeast gene YKR075C): 3.8
- The level of expressed mRNA in the presence of chemical substance/The level of expressed mRNA in the absence of chemical substance (yeast gene YLR064W, incubated two hours with substance): 1.6
- The level of expressed mRNA in the presence of chemical substance/The level of expressed mRNA in the absence of chemical substance (yeast gene YLR297W): 0.8
- The level of expressed mRNA in the presence of chemical substance/The level of expressed mRNA in the absence of chemical substance (yeast gene YLR338W): 1.2
- The level of expressed mRNA in the presence of chemical substance/The level of expressed mRNA in the absence of chemical substance (yeast gene YLR392C): 1.4
